Test [1] relates to HIV/EBOV-GP pseudotype virus. In words: organism not typed. It counts as cell-based, Ebola virus (EBOV).
The target of the next test is CYP3A4 (Homo sapiens, UniProt P08684).
The target of another test is CYP2C9 (Homo sapiens, UniProt P11712).
Test [2] has as its system Wild type Ebola virus (1976 Mayinga variant). The test is classed as cell-based, Ebola virus (EBOV).
Test [3] concerns wild type MARV (Lake Victoria, 2005 Angola). In words: organism not typed. The note with it: Vero, read-out: MARV EC50, Vero cells. It counts as cell-based, Marburg virus (MARV).
[4] abbreviates: A549, read-out: EC50, Ebola pseudovirus (in nM).

Structures are written as SMILES. Like-named read-outs stand apart in the source and are kept apart here.

Chain of CYP2C9 (P11712 whole entry): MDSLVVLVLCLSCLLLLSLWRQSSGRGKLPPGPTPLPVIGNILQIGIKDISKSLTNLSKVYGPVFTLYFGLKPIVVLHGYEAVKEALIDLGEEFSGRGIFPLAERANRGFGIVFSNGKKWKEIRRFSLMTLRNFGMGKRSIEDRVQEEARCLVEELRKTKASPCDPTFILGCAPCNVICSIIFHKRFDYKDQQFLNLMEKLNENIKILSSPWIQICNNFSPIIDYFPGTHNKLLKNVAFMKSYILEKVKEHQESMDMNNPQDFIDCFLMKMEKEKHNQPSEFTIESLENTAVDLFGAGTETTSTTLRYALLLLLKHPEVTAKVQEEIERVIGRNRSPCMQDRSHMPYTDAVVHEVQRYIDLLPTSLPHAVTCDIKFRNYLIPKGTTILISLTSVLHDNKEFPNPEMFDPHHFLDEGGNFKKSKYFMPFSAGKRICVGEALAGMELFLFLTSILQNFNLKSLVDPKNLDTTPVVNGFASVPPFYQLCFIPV
Chain of CYP3A4 (P08684 whole entry): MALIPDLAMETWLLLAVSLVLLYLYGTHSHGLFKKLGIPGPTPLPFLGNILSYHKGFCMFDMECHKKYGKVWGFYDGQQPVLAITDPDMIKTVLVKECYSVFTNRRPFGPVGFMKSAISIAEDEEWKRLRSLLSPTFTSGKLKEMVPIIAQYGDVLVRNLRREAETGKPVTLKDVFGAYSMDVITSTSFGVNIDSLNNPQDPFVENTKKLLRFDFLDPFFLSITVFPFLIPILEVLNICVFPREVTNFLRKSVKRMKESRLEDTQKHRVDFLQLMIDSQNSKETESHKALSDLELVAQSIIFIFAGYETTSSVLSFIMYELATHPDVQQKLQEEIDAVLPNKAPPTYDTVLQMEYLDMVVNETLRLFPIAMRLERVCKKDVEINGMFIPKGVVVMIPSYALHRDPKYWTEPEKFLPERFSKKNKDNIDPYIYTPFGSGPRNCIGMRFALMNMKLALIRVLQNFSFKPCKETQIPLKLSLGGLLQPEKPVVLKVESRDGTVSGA

Take `O=C(NCCC1CCCCC1)c1ccc(CN2CCCCC2)cc1` [Compound 28, N-(2-Cyclohexylethyl)-4-(piperidin-1-ylmethyl)benzamide]: the “Drop in potency on replacing the aniline aromatic ring with a two-carbon linker” value in test [1] worked out at 2.3 fold.

For the compound `O=C(Nc1ccc(C23CC4CC(CC(C4)C2)C3)cc1)c1ccc(CN2CCOCC2)cc1` [Compound 33, N-(4-((1R,3R,5S)-Adamantan-1-yl)phenyl)-4-(morpholinomethyl)benzamide], the EC50 in test [1] (setting [4]) is below 100 nM.

For the compound `O=C(Nc1ccc(C23CC4CC(CC(C4)C2)C3)cc1)c1ccc(CN2CCCCC2)cc1` [Compound 32, N-(4-((1R,3R,5S)-adamantan-1-yl)phenyl)-4-(piperidin-1-ylmethyl)benzamide], the “CYP450 inhibition CYP3A4 IC50” value on CYP3A4 is reported as “did not inhibit”. Besides, the EC50 in test [1] (setting [4]) is below 100 nM. In addition, the “CYP450 inhibition CYP2C9 IC50” value at CYP2C9 was “did not inhibit”.

With `O=C(Nc1ccc(N2CCC(F)(F)CC2)cc1)c1ccc(CN2CCCCC2)cc1` [Compound 34, N-(4-(4,4-Difluoropiperidin-1-yl)phenyl)-4-(piperidin-1-ylmethyl)benzamide], the EC50 in test [1] (A549, read-out: Ebola pseudovirus A549 cells EC50) is below 1000 nM.

`COC(=O)c1ccc(NC(=O)c2ccc(CN3CCN(C)CC3)cc2)cc1` [Compound 7, Methyl 4-(4-((4-methylpiperazin-1-yl)methyl)benzamido)benzoate]: in test [1] (A549, read-out: Ebola pseudovirus A549 cells % inhibition), the inhibition at 12.5 µM amounted to 29%.

As to `COC(=O)c1ccc(NC(=O)c2ccc(CN3CCCCC3)cc2)cc1` [Compound 5, Methyl 4-(4-(piperidin-1-ylmethyl)benzamido)benzoate], the “EBOV (HeLa) EC50” value in test [2] is “inactive”. The EC50 in test [3] was below 10 µM.

For the origin of these results see article PMC7671190 (Journal of medicinal chemistry, 2020).
